Experimental data: patent US7118895B2, “Process for producing aglycon by using diglycosidase and flavor-improved food containing the aglycon and converting agent to be used in the process” (Amano Enzyme Inc., priority 2000, dated 2006)

Test system: Crude diglycosidase
Experiment: Examination of temperature in the conversion into isoflavone aglycons by diglycosidase using soybean materials
Assay type: biochemical, Penicillium multicolor IAM7153
Parameters: Decomposition efficiency of glycitin family in roasted soy flour / Decomposition efficiency of daidzin family in roasted soy flour / Decomposition efficiency of genistin family in soymilk / Decomposition efficiency of daidzin family in soymilk / Decomposition efficiency of glycitin family in defatted soybean / Decomposition efficiency of daidzin family in defatted soybean: concentration or dose not given beside the values
Details: for maximum isolation of aglycons: reaction at 55° C. for 6 hours
Procedure, shortened: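 Soybean materials (50 mg) suspended in 20 mM acetate buffer pH 4.0 reacted with crude diglycosidase diluted to 1.88 AU/mL at 80, 65, 55, 45, 37 or 30° C. Reactions stopped with ethanol at 0, 1, 3 and 6 h; isoflavone glycosides and aglycons in supernatant detected by HPLC.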

[1] = 30 °C, heat treatment of enzyme: no, 0 h
[2] = 30 °C, heat treatment of enzyme: no, 1 h
[3] = 30 °C, heat treatment of enzyme: no, 3 h
[4] = 30 °C, heat treatment of enzyme: no, 6 h
[5] = 30 °C, heat treatment of enzyme: yes, 6 h
[6] = 45 °C, heat treatment of enzyme: no, 0 h
[7] = 45 °C, heat treatment of enzyme: no, 1 h
[8] = 45 °C, heat treatment of enzyme: no, 3 h
[9] = 45 °C, heat treatment of enzyme: no, 6 h
[10] = 45 °C, heat treatment of enzyme: yes, 6 h
[11] = 55 °C, heat treatment of enzyme: no, 0 h
[12] = 55 °C, heat treatment of enzyme: no, 1 h
[13] = 55 °C, heat treatment of enzyme: no, 3 h
[14] = 55 °C, heat treatment of enzyme: no, 6 h
[15] = 55 °C, heat treatment of enzyme: yes, 6 h
[16] = 65 °C, heat treatment of enzyme: no, 0 h
[17] = 65 °C, heat treatment of enzyme: no, 1 h
[18] = 65 °C, heat treatment of enzyme: no, 3 h
[19] = 65 °C, heat treatment of enzyme: no, 6 h
[20] = 65 °C, heat treatment of enzyme: yes, 6 h
[21] = 80 °C, heat treatment of enzyme: no, 0 h
[22] = 80 °C, heat treatment of enzyme: no, 1 h
[23] = 80 °C, heat treatment of enzyme: no, 3 h
[24] = 80 °C, heat treatment of enzyme: no, 6 h
[25] = 80 °C, heat treatment of enzyme: yes, 6 h

- Decomposition efficiency of glycitin family in defatted soybean (30° C., heat treatment of enzyme no, reaction time 0 h): 38.7%
- Decomposition efficiency of glycitin family in defatted soybean (30° C., heat treatment of enzyme no, reaction time 1 h): 51.7%
- Decomposition efficiency of glycitin family in defatted soybean (30° C., heat treatment of enzyme no, reaction time 3 h): 55.4%
- Decomposition efficiency of glycitin family in defatted soybean (30° C., heat treatment of enzyme no, reaction time 6 h): 54.4%
- Decomposition efficiency of glycitin family in defatted soybean (30° C., heat treatment of enzyme yes, reaction time 6 h): 54.9%
- Decomposition efficiency of glycitin family in concentrated soybean protein [1]: 11.4%
- Decomposition efficiency of glycitin family in roasted soy flour [1]: 10.4%
- Decomposition efficiency of glycitin family in soymilk [1]: 8.1%
- Decomposition efficiency of glycitin family in concentrated soybean protein [2]: 17.5%
- Decomposition efficiency of glycitin family in roasted soy flour [2]: 31.5%
- Decomposition efficiency of glycitin family in soymilk [2]: 49.0%
- Decomposition efficiency of glycitin family in concentrated soybean protein [3]: 26.9%
- Decomposition efficiency of glycitin family in roasted soy flour [3]: 66.8%
- Decomposition efficiency of glycitin family in soymilk [3]: 60.4%
- Decomposition efficiency of glycitin family in concentrated soybean protein [4]: 40.3%
- Decomposition efficiency of glycitin family in roasted soy flour [4]: 80.9%
- Decomposition efficiency of glycitin family in soymilk [4]: 71.6%
- Decomposition efficiency of glycitin family in concentrated soybean protein [5]: 11.3%
- Decomposition efficiency of glycitin family in roasted soy flour [5]: 11.1%
- Decomposition efficiency of glycitin family in soymilk [5]: 7.9%
- Decomposition efficiency of glycitin family in defatted soybean (45° C., heat treatment of enzyme no, reaction time 0 h): 34.8%
- Decomposition efficiency of glycitin family in defatted soybean (45° C., heat treatment of enzyme no, reaction time 1 h): 55.7%
- Decomposition efficiency of glycitin family in defatted soybean (45° C., heat treatment of enzyme no, reaction time 3 h): 55.2%
- Decomposition efficiency of glycitin family in defatted soybean (45° C., heat treatment of enzyme no, reaction time 6 h): 59.0%
- Decomposition efficiency of glycitin family in defatted soybean (45° C., heat treatment of enzyme yes, reaction time 6 h): 55.8%
- Decomposition efficiency of glycitin family in concentrated soybean protein [6]: 11.4%
- Decomposition efficiency of glycitin family in roasted soy flour [6]: 10.4%
- Decomposition efficiency of glycitin family in soymilk [6]: 8.2%
- Decomposition efficiency of glycitin family in concentrated soybean protein [7]: 35.2%
- Decomposition efficiency of glycitin family in roasted soy flour [7]: 60.2%
- Decomposition efficiency of glycitin family in soymilk [7]: 53.8%
- Decomposition efficiency of glycitin family in concentrated soybean protein [8]: 49.6%
- Decomposition efficiency of glycitin family in roasted soy flour [8]: 67.4%
- Decomposition efficiency of glycitin family in soymilk [8]: 70.1%
- Decomposition efficiency of glycitin family in concentrated soybean protein [9]: 64.9%
- Decomposition efficiency of glycitin family in roasted soy flour [9]: 85.0%
- Decomposition efficiency of glycitin family in soymilk [9]: 84.7%
- Decomposition efficiency of glycitin family in concentrated soybean protein [10]: 11.3%
- Decomposition efficiency of glycitin family in roasted soy flour [10]: 13.4%
- Decomposition efficiency of glycitin family in soymilk [10]: 7.4%
- Decomposition efficiency of glycitin family in defatted soybean (55° C., heat treatment of enzyme no, reaction time 0 h): 38.7%
- Decomposition efficiency of glycitin family in defatted soybean (55° C., heat treatment of enzyme no, reaction time 1 h): 55.2%
- Decomposition efficiency of glycitin family in defatted soybean (55° C., heat treatment of enzyme no, reaction time 3 h): 57.4%
- Decomposition efficiency of glycitin family in defatted soybean (55° C., heat treatment of enzyme no, reaction time 6 h): 57.3%
- Decomposition efficiency of glycitin family in defatted soybean (55° C., heat treatment of enzyme yes, reaction time 6 h): 54.5%
- Decomposition efficiency of glycitin family in concentrated soybean protein [11]: 11.2%
- Decomposition efficiency of glycitin family in roasted soy flour [11]: 10.4%
- Decomposition efficiency of glycitin family in soymilk [11]: 7.6%
- Decomposition efficiency of glycitin family in concentrated soybean protein [12]: 51.4%
- Decomposition efficiency of glycitin family in roasted soy flour [12]: 69.9%
- Decomposition efficiency of glycitin family in soymilk [12]: 60.9%
- Decomposition efficiency of glycitin family in concentrated soybean protein [13]: 69.7%
- Decomposition efficiency of glycitin family in roasted soy flour [13]: 87.9%
- Decomposition efficiency of glycitin family in soymilk [13]: 72.3%
- Decomposition efficiency of glycitin family in concentrated soybean protein [14]: 72.7%
- Decomposition efficiency of glycitin family in roasted soy flour [14]: 94.0%
- Decomposition efficiency of glycitin family in soymilk [14]: 83.5%
- Decomposition efficiency of glycitin family in concentrated soybean protein [15]: 11.3%
- Decomposition efficiency of glycitin family in roasted soy flour [15]: 11.0%
- Decomposition efficiency of glycitin family in soymilk [15]: 6.7%
- Decomposition efficiency of glycitin family in defatted soybean (65° C., heat treatment of enzyme no, reaction time 0 h): 34.8%
- Decomposition efficiency of glycitin family in defatted soybean (65° C., heat treatment of enzyme no, reaction time 1 h): 54.7%
- Decomposition efficiency of glycitin family in defatted soybean (65° C., heat treatment of enzyme no, reaction time 3 h): 57.9%
- Decomposition efficiency of glycitin family in defatted soybean (65° C., heat treatment of enzyme no, reaction time 6 h): 60.0%
- Decomposition efficiency of glycitin family in defatted soybean (65° C., heat treatment of enzyme yes, reaction time 6 h): 51.2%
- Decomposition efficiency of glycitin family in concentrated soybean protein [16]: 11.4%
- Decomposition efficiency of glycitin family in roasted soy flour [16]: 10.4%
- Decomposition efficiency of glycitin family in soymilk [16]: 8.1%
- Decomposition efficiency of glycitin family in concentrated soybean protein [17]: 58.6%
- Decomposition efficiency of glycitin family in roasted soy flour [17]: 65.5%
- Decomposition efficiency of glycitin family in soymilk [17]: 57.6%
- Decomposition efficiency of glycitin family in concentrated soybean protein [18]: 64.0%
- Decomposition efficiency of glycitin family in roasted soy flour [18]: 69.0%
- Decomposition efficiency of glycitin family in soymilk [18]: 65.7%
- Decomposition efficiency of glycitin family in concentrated soybean protein [19]: 63.8%
- Decomposition efficiency of glycitin family in roasted soy flour [19]: 71.0%
- Decomposition efficiency of glycitin family in soymilk [19]: 74.5%
- Decomposition efficiency of glycitin family in concentrated soybean protein [20]: 11.4%
- Decomposition efficiency of glycitin family in roasted soy flour [20]: 10.4%
- Decomposition efficiency of glycitin family in soymilk [20]: 7.2%
- Decomposition efficiency of glycitin family in defatted soybean (80° C., heat treatment of enzyme no, reaction time 0 h): 34.8%
- Decomposition efficiency of glycitin family in defatted soybean (80° C., heat treatment of enzyme no, reaction time 1 h): 53.9%
- Decomposition efficiency of glycitin family in defatted soybean (80° C., heat treatment of enzyme no, reaction time 3 h): 55.0%
- Decomposition efficiency of glycitin family in defatted soybean (80° C., heat treatment of enzyme no, reaction time 6 h): 59.7%
- Decomposition efficiency of glycitin family in defatted soybean (80° C., heat treatment of enzyme yes, reaction time 6 h): 51.9%
- Decomposition efficiency of glycitin family in concentrated soybean protein [21]: 11.4%
- Decomposition efficiency of glycitin family in roasted soy flour [21]: 10.4%
- Decomposition efficiency of glycitin family in soymilk [21]: 8.2%
- Decomposition efficiency of glycitin family in concentrated soybean protein [22]: 23.8%
- Decomposition efficiency of glycitin family in roasted soy flour [22]: 40.8%
- Decomposition efficiency of glycitin family in soymilk [22]: 45.7%
- Decomposition efficiency of glycitin family in concentrated soybean protein [23]: 23.4%
- Decomposition efficiency of glycitin family in roasted soy flour [23]: 41.1%
- Decomposition efficiency of glycitin family in soymilk [23]: 44.9%
- Decomposition efficiency of glycitin family in concentrated soybean protein [24]: 22.8%
- Decomposition efficiency of glycitin family in roasted soy flour [24]: 30.7%
- Decomposition efficiency of glycitin family in soymilk [24]: 34.4%
- Decomposition efficiency of glycitin family in concentrated soybean protein [25]: 11.4%
- Decomposition efficiency of glycitin family in roasted soy flour [25]: 9.9%
- Decomposition efficiency of glycitin family in soymilk [25]: 9.3%
- maximum isolation of aglycons (concentrated soybean protein): about 73%
- maximum isolation of aglycons (defatted soybean): about 57%
- maximum isolation of aglycons (soy flour): about 94%
- maximum isolation of aglycons (soymilk): about 84%
Compound: COc1cc2c(=O)c(-c3ccc(O)cc3)coc2cc1O [glycitein]
